Data from patent publication US20150253328A1, “NANOMATERIAL-INDUCED CYTOTOXICITY DETECTION COMPOSITION AND KIT, AND NANOMATERIAL-INDUCED CYTOTOXICITY DETECTION METHOD” (KOREA UNIVERSITY RESEARCH AND BUSINESS FOUNDATION, priority 2011, published 2015).

Tests used:
Assay type in all cases: cell-based, human
[1] = system: Egr-1 and p-ERK proteins; test: ROS inhibitor assay (Western blot), HaCaT; settings: 10 uM/ml NAC 2 hours before ZnO, 1 hour after ZnO, FIG. 13B
Procedure: (§1) A Western blot assay was performed in the same manner as described in Example 2, except for the following differences. At 2 hours before treatment with ZnO, cultured cells were treated with 10 uM/ml of the antioxidant N-acetyl cystein (NAC), and after 2 hours, the cells were treated with 2 ml of fresh DMEM medium free of FBS and P/S. After 1 hour from the treatment with ZnO, the medium was removed, and the cells were treated with 1×PBS, scraped with a scrapper, and then transferred to a 1.5 ml tube. […] Thus, it can be seen that the expressions of the marker proteins Egr-1 and p-ERK are increased by ROS (B: HaCaT, C: HEKn). Herein, the data points indicate the β-actin-normalized mean and ERK-normalized mean of three independent experiments compared using two-way Anova (***P<0.001).

[2] = system: Egr-1 and p-ERK proteins; test: ROS inhibitor assay (Western blot), HEKn; settings: 10 uM/ml NAC 2 hours before ZnO, 1 hour after ZnO, FIG. 13C
Procedure: as §1

[3] = system: Egr-1 protein; test: MAPK inhibitor assay (Western blot, ZnO plus MAPK inhibitor); settings: cells pre-treated with inhibitor 30 minutes before ZnO; 2 hours after ZnO
Procedure: (§2) A Western blot assay was performed in the same manner as described in Example 2, except for the following differences. At 30 minutes before treatment with ZnO, cells were treated with an MAPK (mitogen-activated proteinkinase) inhibitor (U0126: ERK inhibitor, SB600125: p38 inhibitor, SP239063: JNK inhibitor-sigma product), and after 30 minutes, the cells were treated with 2 ml of fresh DMEM medium free of FBS and P/S. After 2 hours from treatment with ZnO, the medium was removed, and the cells were treated with 1×PBS, scraped with a scrapper, and then transferred to a 1.5 ml tube.
as §2, with “from the” for “from”

Compound | expression bands of Egr-1 protein [1] | expression bands of p-ERK protein [1] | expression bands of Egr-1 protein [2] | expression bands of p-ERK protein [2] | expression of the Egr-1 protein [3]
CC(=O)N[C@@H](CS)C(=O)O [NAC, N-acetyl cystein] | significantly decreased | significantly decreased | significantly decreased | significantly decreased | 
N#CC(=C(/N)Sc1ccccc1N)/C(C#N)=C(\N)Sc1ccccc1N [U0126] |  |  |  |  | significantly decreased
